Measured values published in patent publication US9708665B2, “Spatial biomarker of disease and detection of spatial organization of cellular receptors” (The Regents of the University of California, priority 2009, dated 2017).
“Also recorded” adds a separate entry of the source.

What was measured:
MDA-MB-231 cells [1] = assay: Trypan blue staining and cell counting (cell viability) under ROCK inhibitor treatment; type: cell-based, human; settings: 2 hrs at 37° C., 1-50 μM
Description: ROCK Inhibition. Cells were detached from cell culture flasks using trypsin-EDTA and incubated at 37° C. for 2 hrs in media containing ROCK inhibitor Y-27632 (Sigma-Aldrich, Inc.) at concentrations ranging from 1-50 μM. […] Cells were cultured in drugged media for one hr on well plates containing Alexa Fluor 647-labeled ephrin-A1 functionalized supported bilayers. Cells were fixed, stained and imaged with epifluorescence microscopy as described above.

MDA-MB-231 cells [2] = assay: ROCK inhibition: EphA2-ephrin-A1 radial transport on ephrin-A1 functionalized supported bilayers; type: cell-based, human; settings: inhibitor 1 to 50 μM, normalized to untreated samples
Description: Radial Transport Analysis. Bright field microscopy was used to determine the area occupied by each cell. The corresponding areas in the fluorescence channel were then analyzed using the Radial Profile plugin from ImageJ, yielding a plot of normalized fluorescence intensities versus radial distance from the cell center. Plots were then normalized for cell size and averaged. Least squares analysis was then performed on the average normalized radial distribution using Origin 7.0 (OriginLab, Northampton, Mass.), and the slope of the calculated line was used as a score for propensity to radially transport ephrin-A1. ROCK Inhibition. Cells were detached from cell culture flasks using trypsin-EDTA and incubated at 37° C. for 2 hrs in media containing ROCK inhibitor Y-27632 (Sigma-Aldrich, Inc.) at concentrations ranging from 1-50 μM. […] Cells were cultured in drugged media for one hr on well plates containing Alexa Fluor 647-labeled ephrin-A1 functionalized supported bilayers. Cells were fixed, stained and imaged with epifluorescence microscopy as described above.

MDA-MB-231 cells [3] = settings: binary mixture with ephrin-A1, 1 hr after plating
Description: Surface Functionalization. After lipid bilayer deposition, substrates were incubated for 45 min with a 0.01% bovine serum albumin (BSA; Sigma-Aldrich, Inc.) solution to minimize non-specific protein adsorption. The supported membranes were then incubated with a 17 nM solution of streptavidin (Fisher Scientific, Pittsburgh, Pa.) for 45 minutes. For experiments that quantify protein surface density, streptavidin conjugated to Alexa Fluor 488 (Invitrogen Corp.) was substituted for the unlabeled protein. The supported membrane was then thoroughly rinsed and substrates were incubated for 45 min with a 50 nM solution of ephrin-A1 (R&D Systems, Minneapolis, Minn.), which had been biotinylated (Fisher Scientific) and conjugated to Alexa Fluor 594 or Alexa Fluor 647 (both from Invitrogen Corp.).
Optical Microscopy. We used Nikon Eclipse TE2000-E and TE300 inverted microscopes with mercury arc lamps for epifluorescence illumination and 12 V, 100 W halogen lamps for bright field illumination. Total internal reflection fluorescence (TIRF) illumination was provided using a krypton/argon ion laser for 647 nm excitation, and an argon ion laser (Stabilite 2018 and Model 177 respectively, both from Spectra-Physics, Mountain View, Calif.) for 488 nm excitation. […]

| Molecule | cell viability (Trypan blue staining and cell counting) (MDA-MB-231 cells [1]) | Eph-ephrin radial transport (capacity to transport EphA2-ephrin-A1 complexes to the center of the cell-supported membrane junction) (MDA-MB-231 cells [2]) | EphA2 organization with increasing RGD peptide density (MDA-MB-231 cells [3]) | cell-supported membrane contact area (RICM) with increasing RGD peptide density (MDA-MB-231 cells [3]) |
| --- | --- | --- | --- | --- |
| C[C@@H](N)[C@H]1CC[C@H](C(=O)Nc2ccncc2)CC1 [Y-27632] | no adverse effects | dose-dependent decrease; also recorded: dosage-dependent decrease |  |  |
| [Arg-Gly-Asp-d-Phe-Lys(Biotin-PEG-PEG)] [cyclic RGD peptide] |  |  | no change in EphA2 organization | progressively larger |
